The values below come from article PMC6812009, “Covalent Aurora A regulation by the metabolic integrator coenzyme A” (Redox Biology, 2019).

Holding throughout (assay): Kinase profiling screen (radioactive filter-binding assay)
What all share (assay type): biochemical

In one assay the target is T1, Aurora A (Homo sapiens, UniProt O14965).
T1 sequence (O14965 1-403): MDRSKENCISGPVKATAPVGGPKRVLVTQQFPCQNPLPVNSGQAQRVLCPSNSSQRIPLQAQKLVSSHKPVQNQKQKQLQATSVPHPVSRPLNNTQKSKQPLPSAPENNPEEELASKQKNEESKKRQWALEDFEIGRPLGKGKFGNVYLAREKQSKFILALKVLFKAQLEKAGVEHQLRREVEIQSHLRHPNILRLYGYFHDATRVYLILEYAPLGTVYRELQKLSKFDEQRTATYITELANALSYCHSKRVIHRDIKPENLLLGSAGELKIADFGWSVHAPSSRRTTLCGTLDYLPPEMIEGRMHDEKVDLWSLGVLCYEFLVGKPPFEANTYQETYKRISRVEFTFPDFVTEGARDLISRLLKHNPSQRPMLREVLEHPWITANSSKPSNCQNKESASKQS
Particulars: for activity at 100 µM: 100 μM compound, 5 μM ATP, read-out: Kinase activity, % of activity in the absence of inhibitor. An outline of the steps: (§1)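 Panel of 117 recombinant kinases; CoA, dpCoA, ADP each at 100 μM final, duplicates; model substrates, ATP at optimal level.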

The target of another assay is BRK (Homo sapiens, UniProt Q13882). The settings on record: 100 μM compound, 20 μM ATP; read-out: Kinase activity, % of activity in the absence of inhibitor. An outline of the steps: as §1
The next assay has as its target CDK2-Cyclin A (Homo sapiens, UniProt P24941). Particulars: 100 μM compound, 20 μM ATP; read-out: Kinase activity, % of activity in the absence of inhibitor. A digest of the protocol:
as §1

The target in a further assay is DAPK1 (Homo sapiens, UniProt P53355). The settings on record: 100 μM compound, 5 μM ATP; read-out: Kinase activity, % of activity in the absence of inhibitor. An outline of the steps:
as §1

For the next assay, the target named is T2, EPH-B3 (Homo sapiens, UniProt P54753).
T2 sequence (P54753 34-998): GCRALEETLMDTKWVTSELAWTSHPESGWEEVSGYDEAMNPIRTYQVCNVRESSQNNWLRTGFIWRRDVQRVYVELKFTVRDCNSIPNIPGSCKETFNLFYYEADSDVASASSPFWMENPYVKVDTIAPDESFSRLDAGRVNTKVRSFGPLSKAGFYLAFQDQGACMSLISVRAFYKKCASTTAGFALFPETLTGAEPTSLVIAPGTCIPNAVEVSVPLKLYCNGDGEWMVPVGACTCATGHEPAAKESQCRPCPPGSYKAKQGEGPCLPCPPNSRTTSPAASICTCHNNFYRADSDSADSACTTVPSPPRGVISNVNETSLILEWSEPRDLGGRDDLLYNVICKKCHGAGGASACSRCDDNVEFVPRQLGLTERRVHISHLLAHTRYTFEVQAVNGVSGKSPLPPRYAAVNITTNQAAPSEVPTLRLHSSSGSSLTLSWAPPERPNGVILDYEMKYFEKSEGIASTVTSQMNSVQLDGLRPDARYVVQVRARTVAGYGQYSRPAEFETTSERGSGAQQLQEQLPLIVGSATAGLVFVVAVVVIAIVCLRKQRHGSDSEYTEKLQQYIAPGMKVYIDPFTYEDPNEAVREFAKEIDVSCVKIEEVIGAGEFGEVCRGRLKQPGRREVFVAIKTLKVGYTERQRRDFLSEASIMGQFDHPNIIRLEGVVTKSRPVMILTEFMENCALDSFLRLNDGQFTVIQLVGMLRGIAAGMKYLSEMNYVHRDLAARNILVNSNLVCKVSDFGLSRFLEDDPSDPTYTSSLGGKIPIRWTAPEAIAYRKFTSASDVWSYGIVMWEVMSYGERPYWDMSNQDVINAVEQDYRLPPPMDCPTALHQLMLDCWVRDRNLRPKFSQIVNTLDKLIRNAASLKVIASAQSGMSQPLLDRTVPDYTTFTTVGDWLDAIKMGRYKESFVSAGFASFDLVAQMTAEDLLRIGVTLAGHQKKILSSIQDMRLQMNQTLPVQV
The settings on record: 100 μM compound, 20 μM ATP; read-out: Kinase activity, % of activity in the absence of inhibitor. A digest of the protocol:
as §1

In another assay the target is HIPK1 (Homo sapiens, UniProt Q86Z02). Particulars: 100 μM compound, 20 μM ATP; read-out: Kinase activity, % of activity in the absence of inhibitor. A digest of the protocol: as §1
A further assay concerns the target HIPK2 (Homo sapiens, UniProt Q9H2X6). The settings on record: 100 μM compound, 5 μM ATP; read-out: Kinase activity, % of activity in the absence of inhibitor. An outline of the steps: as §1
The target of the next assay is MKK2 (Homo sapiens, UniProt P36507). The settings on record: 100 μM compound, 5 μM ATP; read-out: Kinase activity, % of activity in the absence of inhibitor. An outline of the steps: as §1
Another assay addresses T3, MKK6 (Homo sapiens, UniProt P52564).
T3 sequence (P52564 1-334): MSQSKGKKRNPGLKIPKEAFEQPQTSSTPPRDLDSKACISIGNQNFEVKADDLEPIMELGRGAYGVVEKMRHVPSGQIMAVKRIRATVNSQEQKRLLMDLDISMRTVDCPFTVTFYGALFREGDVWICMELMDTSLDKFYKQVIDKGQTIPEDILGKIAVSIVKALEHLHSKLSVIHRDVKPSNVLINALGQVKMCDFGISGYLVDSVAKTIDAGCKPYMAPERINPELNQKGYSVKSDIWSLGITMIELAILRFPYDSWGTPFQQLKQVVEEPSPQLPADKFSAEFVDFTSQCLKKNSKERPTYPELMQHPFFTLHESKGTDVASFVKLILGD
Particulars: 100 μM compound, 50 μM ATP; read-out: Kinase activity, % of activity in the absence of inhibitor. An outline of the steps:
as §1

The target of a further assay is PIM1 (Homo sapiens, UniProt P11309). Particulars: 100 μM compound, 20 μM ATP; read-out: Kinase activity, % of activity in the absence of inhibitor. An outline of the steps:
as §1

The target of another assay is SRPK1 (Homo sapiens, UniProt Q96SB4). Particulars: 100 μM compound, 50 μM ATP; read-out: Kinase activity, % of activity in the absence of inhibitor. An outline of the steps: as §1
The target of another assay is YES1 (Homo sapiens, UniProt P07947). The settings on record: for activity at 100 µM: 100 μM compound, 20 μM ATP, read-out: Kinase activity, % of activity in the absence of inhibitor. A digest of the protocol: as §1
Sequence of YES1 (P07947 whole entry): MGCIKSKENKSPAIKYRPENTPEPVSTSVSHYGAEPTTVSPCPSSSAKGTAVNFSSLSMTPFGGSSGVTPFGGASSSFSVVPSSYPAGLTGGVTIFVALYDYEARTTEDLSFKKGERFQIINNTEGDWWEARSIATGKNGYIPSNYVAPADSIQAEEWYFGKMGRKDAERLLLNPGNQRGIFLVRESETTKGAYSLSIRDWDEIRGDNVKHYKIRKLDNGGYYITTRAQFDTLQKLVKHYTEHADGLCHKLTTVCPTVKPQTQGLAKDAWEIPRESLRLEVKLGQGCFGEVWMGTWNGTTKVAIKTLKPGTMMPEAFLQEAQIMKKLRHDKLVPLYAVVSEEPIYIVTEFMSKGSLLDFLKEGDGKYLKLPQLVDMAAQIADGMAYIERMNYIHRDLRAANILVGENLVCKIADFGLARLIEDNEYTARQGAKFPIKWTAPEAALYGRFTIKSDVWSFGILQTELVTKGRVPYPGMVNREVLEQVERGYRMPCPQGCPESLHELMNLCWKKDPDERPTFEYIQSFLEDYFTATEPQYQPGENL

Sequence of DAPK1 (P53355 whole entry): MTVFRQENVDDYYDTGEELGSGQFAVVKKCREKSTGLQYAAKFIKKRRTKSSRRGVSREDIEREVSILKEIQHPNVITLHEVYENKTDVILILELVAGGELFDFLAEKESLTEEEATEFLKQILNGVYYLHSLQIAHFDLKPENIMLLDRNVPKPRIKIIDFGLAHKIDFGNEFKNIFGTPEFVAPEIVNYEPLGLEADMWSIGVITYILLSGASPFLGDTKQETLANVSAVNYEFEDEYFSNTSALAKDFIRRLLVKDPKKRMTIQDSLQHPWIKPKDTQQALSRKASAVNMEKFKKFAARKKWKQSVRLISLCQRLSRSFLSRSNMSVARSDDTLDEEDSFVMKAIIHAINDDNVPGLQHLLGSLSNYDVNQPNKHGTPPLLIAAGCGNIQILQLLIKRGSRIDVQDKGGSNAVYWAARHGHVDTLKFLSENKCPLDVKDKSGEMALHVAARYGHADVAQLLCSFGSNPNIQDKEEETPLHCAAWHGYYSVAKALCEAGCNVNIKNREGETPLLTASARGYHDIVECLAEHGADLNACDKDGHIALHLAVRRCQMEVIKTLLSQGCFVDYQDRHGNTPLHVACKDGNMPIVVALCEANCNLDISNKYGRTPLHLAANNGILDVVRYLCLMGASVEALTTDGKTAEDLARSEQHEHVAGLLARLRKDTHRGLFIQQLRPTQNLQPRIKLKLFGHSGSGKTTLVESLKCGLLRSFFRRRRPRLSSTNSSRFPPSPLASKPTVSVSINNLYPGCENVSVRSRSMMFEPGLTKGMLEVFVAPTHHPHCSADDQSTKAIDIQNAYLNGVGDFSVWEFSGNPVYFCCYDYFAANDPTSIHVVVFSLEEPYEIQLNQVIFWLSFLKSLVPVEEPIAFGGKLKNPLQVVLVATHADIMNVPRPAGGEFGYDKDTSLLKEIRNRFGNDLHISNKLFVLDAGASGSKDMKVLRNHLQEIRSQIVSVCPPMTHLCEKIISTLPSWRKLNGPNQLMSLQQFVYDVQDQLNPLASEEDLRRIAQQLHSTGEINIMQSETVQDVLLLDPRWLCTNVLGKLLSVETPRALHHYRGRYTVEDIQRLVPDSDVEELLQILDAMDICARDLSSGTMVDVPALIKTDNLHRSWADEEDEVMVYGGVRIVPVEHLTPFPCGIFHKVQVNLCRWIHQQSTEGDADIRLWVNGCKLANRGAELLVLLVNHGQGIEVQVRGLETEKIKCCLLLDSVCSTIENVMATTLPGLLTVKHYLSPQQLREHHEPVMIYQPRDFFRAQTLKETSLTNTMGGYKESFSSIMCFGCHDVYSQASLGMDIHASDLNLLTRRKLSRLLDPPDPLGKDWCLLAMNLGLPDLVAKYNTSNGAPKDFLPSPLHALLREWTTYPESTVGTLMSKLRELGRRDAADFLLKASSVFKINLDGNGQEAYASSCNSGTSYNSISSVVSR
Sequence of PIM1 (P11309 whole entry): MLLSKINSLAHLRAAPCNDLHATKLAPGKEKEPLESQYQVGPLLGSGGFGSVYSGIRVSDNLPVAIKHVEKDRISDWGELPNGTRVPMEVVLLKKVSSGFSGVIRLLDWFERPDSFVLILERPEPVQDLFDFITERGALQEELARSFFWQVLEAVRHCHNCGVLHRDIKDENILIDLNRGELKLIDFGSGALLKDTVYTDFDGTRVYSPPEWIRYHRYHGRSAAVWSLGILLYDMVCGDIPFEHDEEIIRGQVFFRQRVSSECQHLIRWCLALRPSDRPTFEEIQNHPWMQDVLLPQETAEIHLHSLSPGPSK
Sequence of MKK2 (P36507 whole entry): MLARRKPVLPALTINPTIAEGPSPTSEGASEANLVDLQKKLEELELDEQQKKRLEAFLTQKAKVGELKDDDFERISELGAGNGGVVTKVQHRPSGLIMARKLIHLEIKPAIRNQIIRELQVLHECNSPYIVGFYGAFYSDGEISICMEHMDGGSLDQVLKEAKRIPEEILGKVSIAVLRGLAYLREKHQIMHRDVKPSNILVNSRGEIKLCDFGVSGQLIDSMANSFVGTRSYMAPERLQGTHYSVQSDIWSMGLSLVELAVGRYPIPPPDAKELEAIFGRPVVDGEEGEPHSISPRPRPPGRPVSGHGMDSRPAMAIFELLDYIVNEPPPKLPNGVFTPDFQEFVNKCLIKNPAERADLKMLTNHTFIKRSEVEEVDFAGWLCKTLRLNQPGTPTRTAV
Sequence of SRPK1 (Q96SB4 whole entry): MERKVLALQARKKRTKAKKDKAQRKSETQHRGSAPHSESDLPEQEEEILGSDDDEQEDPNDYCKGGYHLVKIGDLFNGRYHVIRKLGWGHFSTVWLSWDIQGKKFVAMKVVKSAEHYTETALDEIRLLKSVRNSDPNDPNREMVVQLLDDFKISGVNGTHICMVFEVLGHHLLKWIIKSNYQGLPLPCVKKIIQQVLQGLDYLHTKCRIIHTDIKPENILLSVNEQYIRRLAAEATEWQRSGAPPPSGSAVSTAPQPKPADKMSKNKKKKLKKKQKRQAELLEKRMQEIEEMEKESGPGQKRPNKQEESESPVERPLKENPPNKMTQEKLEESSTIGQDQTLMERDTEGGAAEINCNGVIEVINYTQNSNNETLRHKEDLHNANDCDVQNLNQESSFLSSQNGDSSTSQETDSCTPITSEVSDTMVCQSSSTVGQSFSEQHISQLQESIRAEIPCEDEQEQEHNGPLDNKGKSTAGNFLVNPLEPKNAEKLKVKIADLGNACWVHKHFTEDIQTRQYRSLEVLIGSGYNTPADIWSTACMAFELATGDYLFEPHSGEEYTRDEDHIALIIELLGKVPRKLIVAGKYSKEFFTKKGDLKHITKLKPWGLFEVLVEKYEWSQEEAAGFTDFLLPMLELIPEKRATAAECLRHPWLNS
Sequence of BRK (Q13882 whole entry): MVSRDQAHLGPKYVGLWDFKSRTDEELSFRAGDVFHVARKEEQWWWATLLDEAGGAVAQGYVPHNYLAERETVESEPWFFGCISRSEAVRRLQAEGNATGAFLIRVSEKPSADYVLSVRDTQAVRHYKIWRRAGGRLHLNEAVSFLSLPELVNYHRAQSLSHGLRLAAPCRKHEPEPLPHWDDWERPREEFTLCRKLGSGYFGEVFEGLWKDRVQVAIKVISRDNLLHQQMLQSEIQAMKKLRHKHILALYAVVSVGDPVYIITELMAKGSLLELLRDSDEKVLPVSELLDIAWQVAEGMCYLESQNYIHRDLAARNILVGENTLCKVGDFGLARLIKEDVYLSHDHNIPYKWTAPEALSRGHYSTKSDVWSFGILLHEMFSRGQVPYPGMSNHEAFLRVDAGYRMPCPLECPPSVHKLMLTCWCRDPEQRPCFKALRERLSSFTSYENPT
Sequence of HIPK2 (Q9H2X6 whole entry): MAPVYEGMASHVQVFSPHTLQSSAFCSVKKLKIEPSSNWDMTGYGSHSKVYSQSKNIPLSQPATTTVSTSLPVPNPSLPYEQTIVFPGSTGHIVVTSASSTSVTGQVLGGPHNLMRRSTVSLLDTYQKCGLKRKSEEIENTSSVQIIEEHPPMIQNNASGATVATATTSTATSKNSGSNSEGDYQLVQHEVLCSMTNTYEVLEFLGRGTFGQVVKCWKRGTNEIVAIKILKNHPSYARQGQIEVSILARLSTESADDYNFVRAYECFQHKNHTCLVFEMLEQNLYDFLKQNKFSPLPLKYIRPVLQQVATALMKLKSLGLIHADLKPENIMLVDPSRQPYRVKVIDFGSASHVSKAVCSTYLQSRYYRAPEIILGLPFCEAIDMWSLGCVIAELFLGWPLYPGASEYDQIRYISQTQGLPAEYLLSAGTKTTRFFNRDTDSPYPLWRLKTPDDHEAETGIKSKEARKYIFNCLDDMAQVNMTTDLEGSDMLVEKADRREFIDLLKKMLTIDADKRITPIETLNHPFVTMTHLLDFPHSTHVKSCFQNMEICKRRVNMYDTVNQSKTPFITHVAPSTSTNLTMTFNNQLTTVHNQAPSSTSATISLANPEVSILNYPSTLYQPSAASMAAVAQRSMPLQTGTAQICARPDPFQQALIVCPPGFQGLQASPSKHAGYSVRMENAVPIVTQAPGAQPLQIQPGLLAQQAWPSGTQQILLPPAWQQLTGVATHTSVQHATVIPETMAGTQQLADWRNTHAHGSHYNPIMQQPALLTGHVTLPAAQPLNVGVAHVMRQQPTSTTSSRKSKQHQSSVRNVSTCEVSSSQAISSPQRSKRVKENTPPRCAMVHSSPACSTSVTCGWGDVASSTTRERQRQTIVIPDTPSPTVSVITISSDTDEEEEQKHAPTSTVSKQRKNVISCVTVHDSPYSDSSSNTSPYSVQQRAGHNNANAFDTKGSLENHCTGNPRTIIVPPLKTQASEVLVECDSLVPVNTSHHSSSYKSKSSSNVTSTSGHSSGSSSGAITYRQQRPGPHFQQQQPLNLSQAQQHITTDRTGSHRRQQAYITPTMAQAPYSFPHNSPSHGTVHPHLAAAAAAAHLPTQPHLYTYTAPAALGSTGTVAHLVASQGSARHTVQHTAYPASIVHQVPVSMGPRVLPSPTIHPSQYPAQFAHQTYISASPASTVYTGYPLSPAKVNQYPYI

With `Nc1ncnc2c1ncn2C1OC(COP(=O)(O)OP(=O)(O)O)C(O)C1O` (stereo not drawn) [ADP], the activity at 100 µM at Aurora A stood at 38%; on BRK it was 41.3%; at CDK2-Cyclin A, 26.3%; at DAPK1, 10.3%; at EPH-B3, 18%; at HIPK1, 31.7%. The activity at 100 µM at HIPK2 is 16.5%; at MKK2 it was 35.4%; on MKK6, 39.1%; on PIM1, 46.1%; on SRPK1, 60.9%; on YES1 it was 18.6%.

As usually defined, the inhibition is the change of the read-out against control, counted positive when it falls. On to `CC(C)(COP(=O)(O)OP(=O)(O)OC[C@H]1O[C@@H](n2cnc3c(N)ncnc32)[C@H](O)[C@@H]1OP(=O)(O)O)[C@@H](O)C(=O)NCCC(=O)NCCS` [CoA, Coenzyme A], for which the activity at 100 µM came to 13.4% on Aurora A; 114% on BRK; 93.2% on CDK2-Cyclin A; 106% at DAPK1; 104% at EPH-B3; 115% at HIPK1. Moreover, the activity at 100 µM came to 153% at HIPK2; 103% at MKK2; 88.6% on MKK6; 103% on PIM1; 116% on SRPK1; 49% on YES1. The inhibition at 100 µM at Aurora A (at 100 μM, n = 3) was 87%; on YES1 (100 μM CoA, kinase profiling screen, read-out: YES inhibition), at most 50%. Further, the “YES inhibition (in words)” value at YES1 (kinase profiling, 100 μM) was “modestly inhibited”.

In the case of `CC(C)(COP(=O)(O)OP(=O)(O)OCC1OC(n2cnc3c(N)ncnc32)C(O)C1O)C(O)C(=O)NCCC(=O)NCCS` (stereo not drawn) [dpCoA, dephospho-CoA], the activity at 100 µM was determined as 29.9% at Aurora A; 83.1% at BRK; 81.1% at CDK2-Cyclin A; 64.4% at DAPK1; 94.4% at EPH-B3; 92.8% at HIPK1. Besides, the activity at 100 µM was 73.4% at HIPK2; 53% at MKK2; 88.2% at MKK6; 97.7% at PIM1; 89.1% on SRPK1; 11.5% on YES1.
